Test results: patent US9458092B2, “α-Substituted glycinamide derivative” (KISSEI PHARMACEUTICAL CO., LTD., priority 2013, dated 2016)

What was measured:
[1] = test system: overactive bladder induced by acetic acid; experiment: Confirmation test of elongation action of micturition interval of overactive bladder induced by acetic acid; type: in vivo, female SD rats; conditions: Rattus norvegicus, iv, interval before administration = 100%
Procedure: Urethane (sigma) was dissolved into pure water by 25% w/v, and female SD rats were anesthetized with 1.25 g/kg urethane by subcutaneous administration. Cannulae were placed in femoral vein and bladder, and the bladder cannula was connected to both a syringe pump and a pressure transducer. Detrusor overactivity was induced by intravesical infusion of 0.25% acetic acid in saline at a rate of 3.6 mL/h, and intravesical pressure was monitored via pressure transducer concurrently. Test compounds were dissolved into a mixture of dimethylacetamide and saline (20:80), and were administered via the femoral vein. When an average of the three micturition interval before administration was taken as 100%, an average of the three micturition interval after administration was calculated as Elongation of micturition interval (%) Dose and results are shown in tables 46 and 47.

TRPM8 = TRPM8 (Rattus norvegicus, UniProt Q8R455); experiment: Confirmation test of inhibitory effects on icilin-induced wet-dog shakes; type: in vivo, female SD rats; parameters: test compounds were orally administered to female SD rats; from tissue; host or cells: whole animal (female SD rats), endogenous channel; conditions: icilin 1 mg/kg i.p. after 1 hour, shakes counted for 5 minutes
TRPM8, sequence (Q8R455 whole entry): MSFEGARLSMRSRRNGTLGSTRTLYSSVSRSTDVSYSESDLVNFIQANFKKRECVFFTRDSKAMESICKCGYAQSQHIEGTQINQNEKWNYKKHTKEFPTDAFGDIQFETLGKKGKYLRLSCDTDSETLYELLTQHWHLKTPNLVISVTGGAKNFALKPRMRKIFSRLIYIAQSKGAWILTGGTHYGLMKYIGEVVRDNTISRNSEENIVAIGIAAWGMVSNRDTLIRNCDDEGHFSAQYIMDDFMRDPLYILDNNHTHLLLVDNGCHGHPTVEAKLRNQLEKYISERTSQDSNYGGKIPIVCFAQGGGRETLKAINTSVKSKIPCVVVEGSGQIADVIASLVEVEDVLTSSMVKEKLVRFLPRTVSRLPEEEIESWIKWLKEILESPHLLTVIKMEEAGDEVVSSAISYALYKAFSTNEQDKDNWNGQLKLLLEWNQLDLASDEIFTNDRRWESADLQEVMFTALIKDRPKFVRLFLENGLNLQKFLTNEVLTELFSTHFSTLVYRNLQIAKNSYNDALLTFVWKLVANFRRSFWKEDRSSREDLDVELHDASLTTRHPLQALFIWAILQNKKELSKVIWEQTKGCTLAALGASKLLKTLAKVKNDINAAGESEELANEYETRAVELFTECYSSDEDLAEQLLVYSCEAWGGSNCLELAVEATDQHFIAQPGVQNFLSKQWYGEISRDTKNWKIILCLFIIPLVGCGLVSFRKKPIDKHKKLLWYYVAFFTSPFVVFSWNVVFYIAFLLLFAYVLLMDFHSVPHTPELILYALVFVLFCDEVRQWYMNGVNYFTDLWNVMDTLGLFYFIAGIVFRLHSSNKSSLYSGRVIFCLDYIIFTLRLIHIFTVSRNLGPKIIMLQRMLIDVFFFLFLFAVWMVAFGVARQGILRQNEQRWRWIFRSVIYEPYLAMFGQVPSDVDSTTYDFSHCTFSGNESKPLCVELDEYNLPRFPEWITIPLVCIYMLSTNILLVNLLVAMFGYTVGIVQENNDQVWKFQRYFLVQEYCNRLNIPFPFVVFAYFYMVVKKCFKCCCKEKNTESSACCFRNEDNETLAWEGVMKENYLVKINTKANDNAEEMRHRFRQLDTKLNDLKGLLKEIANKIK
Procedure: Test compounds were dissolved in dimethylacetamide (wako), and 0.5% methylcellulose solution (wako) was added to make the solution or suspension containing 5% of dimethylacetamide. At a dose of 3 or 10 mg/kg/5 mL of test compounds were orally administered to female SD rats. After 1 hour, wet-dog shakes were induced by the intrapenitoneal injection of icilin (1 mg/kg) which was dissolved in polyethylene glycol 400 (wako). From 5 minutes after the administration of icilin, wet-dog shakes were counted for 5 minutes. For control example, vehicle (a mixture of dimethylacetamide (wako): 0.5% methylcellulose (wako)=5:95) was administrated similarly, and the number of wet-dog shakes was counted in the same manner. A percent inhibition of wet-dog shakes by test compound was calculated from the following formula: [1-(test compound wet-dog shake count/vehicle wet-dog shake count)]×100.

[2] = 1 mg/kg/ml via the femoral vein
[3] = 1 mg/kg/2 ml via the femoral vein

Row | % inhibition of Wet-Dog Shake (TRPM8; dose 10 mg/kg orally) | % inhibition of Wet-Dog Shake (TRPM8; dose 3 mg/kg orally) | Structure (SMILES) | other results
1 | 73% |  | N#Cc1ccc2c(c1)[C@H](N(C(=O)c1ccccc1O)[C@@H](C(N)=O)c1ccccc1)CC2 [Example 3-2, N-[(R)-carbamoylphenylmethyl]-N-[(R)-6-cyanoindan-1-yl]-2-hydroxybenzamide] | 
2 | 86% |  | NC(=O)[C@@H](c1ccccc1)N(C(=O)c1ccccc1O)[C@@H]1COc2ccc(Cl)cc21 [Example 4-2, N-[(R)-carbamoylphenylmethyl]-N-[(S)-5-chloro-2,3-dihydrobenzofuran-3-yl]-2-hydroxybenzamide] | 
3 |  | 76% | NC(=O)[C@@H](c1cccnc1)N(C(=O)c1ccccc1O)[C@@H]1CCc2c(F)cc(Cl)cc21 [Example 4-5, N-[(R)-carbamoylpyridin-3-ylmethyl]-N-[(R)-6-chloro-4-fluoroindan-1-yl]-2-hydroxybenzamide] | 
4 |  | 37% | NC(=O)[C@@H](c1cnccn1)N(C(=O)c1ccccc1O)[C@@H]1CCc2c(F)cc(Cl)cc21 [Example 4-8, N-[(R)-carbamoylpyrazin-2-ylmethyl]-N-[(R)-6-chloro-4-fluoroindan-1-yl]-2-hydroxybenzamide] | 
5 |  | 36% | Cc1cccc(C(=O)N([C@@H]2CCc3c(F)cc(Cl)cc32)[C@@H](C(N)=O)c2ccccc2)c1O [Example 4-9, N-[(R)-carbamoylphenylmethyl]-N-[(R)-6-chloro-4-fluoroindan-1-yl]-2-hydroxy-3-methylbenzamide] | 
6 | 99% |  | Cc1ncccc1C(=O)N([C@@H]1CCc2c(F)cc(Cl)cc21)[C@@H](C(N)=O)c1cccc(N)c1 [Example 21-1, N-[(R)-(3-Aminophenyl)carbamoylmethyl]-N-[(R)-6-chloro-4-fluoroindan-1-yl]-2-methylnicotinamide] | 
7 | 94% |  | NC(=O)[C@@H](c1cccc(N)c1)N(C(=O)c1ccccc1O)[C@@H]1CCc2c(F)cc(Cl)cc21 [Example 21-2, N-[(R)-(3-Aminophenyl)carbamoylmethyl]-N-[(R)-6-chloro-4-fluoroindan-1-yl]-2-hydroxybenzamide] | 

More lines, now with the values behind:

Row | Structure (SMILES) | % inhibition of Wet-Dog Shake (TRPM8; dose 10 mg/kg orally) | % inhibition of Wet-Dog Shake (TRPM8; dose 3 mg/kg orally) | other results
8 | NC(=O)[C@@H](c1ccccc1)N(C(=O)c1cccnc1)[C@@H]1CCc2c(F)cc(F)cc21 [Example 1-1, N-[(R)-Carbamoylphenylmethyl]-N-[(R)-4,6-difluoroindan-1-yl]nicotinamide] | 95% |  | response vs control in vivo at 1 mg/kg [1, 2]: 209%
9 | NC(=O)[C@@H](c1ccccc1)N(C(=O)c1cccnc1N)[C@@H]1CCc2c(F)cc(F)cc21 [Example 1-3, 2-Amino-N-[(R)-carbamoylphenylmethyl]-N-[(R)-4,6-difluoroindan-1-yl]nicotinamide] |  | 69% | response vs control in vivo at 1 mg/kg [1, 2]: 200%
10 | NC(=O)[C@@H](c1ccccc1)N(C(=O)c1ccccc1)[C@@H]1CCc2ccc(Cl)cc21 [Example 2-2LP, N-[(R)-Carbamoylphenylmethyl]-N-[(R)-6-chloroindan-1-yl]benzamide] | 100% |  | response vs control in vivo at 1 mg/kg [1, 3]: 221%
11 | COc1ccc2c(c1)[C@H](N(C(=O)c1ccccc1)[C@@H](C(N)=O)c1ccccc1)CC2 [Example 2-4LP, N-[(R)-Carbamoylphenylmethyl]-N-[(R)-6-methoxyindan-1-yl]benzamide] | 79% |  | response vs control in vivo at 1 mg/kg [1, 3]: 156%
12 | NC(=O)[C@@H](c1ccccc1)N(C(=O)c1ccccc1)[C@@H]1CCc2ccc(C3CC3)cc21 [Example 2-5LP, N-[(R)-carbamoylphenylmethyl]-N-[(R)-6-cyclopropylindan-1-yl]benzamide] | 89% |  | response vs control in vivo at 1 mg/kg [1, 3]: 177%
13 | NC(=O)[C@@H](c1ccccc1)N(C(=O)c1ccccc1)[C@@H]1CCc2c(F)cc(Cl)cc21 [Example 2-6LP, N-[(R)-carbamoylphenylmethyl]-N-[(R)-6-chloro-4-fluoroindan-1-yl]benzamide] |  | 69% | response vs control in vivo at 0.3 mg/kg ([1]; 0.3 mg/kg/ml via the femoral vein): 184%
14 | NC(=O)[C@@H](c1ccccc1)N(C(=O)c1cccnc1)[C@@H]1CCc2c(F)cc(Cl)cc21 [Example 2-23LP, N-[(R)-carbamoylphenylmethyl]-N-[(R)-6-chloro-4-fluoroindan-1-yl]nicotinamide] |  | 56% | response vs control in vivo at 1 mg/kg [1, 2]: 205%
15 | NC(=O)[C@@H](c1ccccc1)N(C(=O)c1cccnc1)[C@@H]1CCc2ccc(Cl)cc21 [Example 2-31LP, N-[(R)-carbamoylphenylmethyl]-N-[(R)-6-chloroindan-1-yl]nicotinamide] | 87% |  | response vs control in vivo at 1 mg/kg [1, 2]: 176%
16 | Cc1nccnc1C(=O)N([C@@H]1CCc2c(F)cc(Cl)cc21)[C@@H](C(N)=O)c1ccccc1 [Example 2-175LP, N-[(R)-carbamoylphenylmethyl]-N-[(R)-6-chloro-4-fluoroindan-1-yl]-3-methylpyrazine-2-carboxamide] |  | 40% | 
17 | NC(=O)[C@@H](c1ccccc1)N(C(=O)c1cnccn1)[C@@H]1CCc2c(F)cc(Cl)cc21 [Example 2-179LP, N-[(R)-carbamoylphenylmethyl]-N-[(R)-6-chloro-4-fluoroindan-1-yl]pyrazine-2-carboxamide] |  | 32% | 
18 | COc1ncccc1C(=O)N([C@@H]1CCc2c(F)cc(Cl)cc21)[C@@H](C(N)=O)c1cccnc1 [Example 2-180LP, N-[(R)-carbamoylpyridin-3-ylmethyl]-N-[(R)-6-chloro-4-fluoroindan-1-yl]-2-methoxynicotinamide] |  | 32% | 
19 | Cc1ncccc1C(=O)N([C@@H]1CCc2c(F)cc(Cl)cc21)[C@@H](C(N)=O)c1cccc(N(C)C)c1 [Example 18-13LP, N-[(R)-carbamoyl-(3-dimethylaminophenyl)methyl]-N-[(R)-6-chloro-4-fluoroindan-1-yl]-2-methylnicotinamide] | 86% |  | 
20 | NC(=O)[C@@H](c1cccnc1)N(C(=O)c1ccccc1O)[C@@H]1CCc2c(F)cc(Cl)cc21 [Example 19-1LP, N-[(R)-carbamoylpyridin-3-ylmethyl]-N-[(R)-6-chloro-4-fluoroindan-1-yl]-2-hydroxybenzamide] |  |  | response vs control in vivo at 1 mg/kg [1, 2]: 178%
21 | CN(C)c1cccc([C@H](C(N)=O)N(C(=O)c2ccccc2O)[C@@H]2CCc3c(F)cc(Cl)cc32)c1 [Example 19-6LP, N-[(R)-carbamoyl-(3-dimethylaminophenyl)methyl]-N-[(R)-6-chloro-4-fluoroindan-1-yl]-2-hydroxybenzamide] | 99% |  | 
22 | Cc1ccc(C(=O)N([C@@H]2CCc3c(F)cc(Cl)cc32)[C@@H](C(N)=O)c2cccnc2)c(O)c1 [Example 19-12LP, N-[(R)-carbamoylpyridin-3-ylmethyl]-N-[(R)-6-chloro-4-fluoroindan-1-yl]-2-hydroxy-4-methylbenzamide] | 82% |  | 
23 | NC(=O)[C@@H](c1cccnc1)N(C(=O)c1c(O)cccc1F)[C@@H]1CCc2c(F)cc(Cl)cc21 [Example 19-15LP, N-[(R)-carbamoylpyridin-3-ylmethyl]-N-[(R)-6-chloro-4-fluoroindan-1-yl]-2-fluoro-6-hydroxybenzamide] | 72% |  | 
24 | NC(=O)[C@@H](c1cccnc1)N(C(=O)c1ccc(F)cc1O)[C@@H]1CCc2c(F)cc(Cl)cc21 [Example 19-16LP, N-[(R)-carbamoylpyridin-3-ylmethyl]-N-[(R)-6-chloro-4-fluoroindan-1-yl]-4-fluoro-2-hydroxybenzamide] | 63% |  | 
25 | NC(=O)[C@@H](c1cccnc1)N(C(=O)c1ccc(Cl)cc1O)[C@@H]1CCc2c(F)cc(Cl)cc21 [Example 19-17LP, N-[(R)-carbamoylpyridin-3-ylmethyl]-4-chloro-N-[(R)-6-chloro-4-fluoroindan-1-yl]-2-hydroxybenzamide] | 66% |  | 
26 | NC(=O)[C@@H](c1cccnc1)N(C(=O)c1cccc(F)c1O)[C@@H]1CCc2c(F)cc(Cl)cc21 [Example 19-25LP, N-[(R)-carbamoylpyridin-3-ylmethyl]-N-[(R)-6-chloro-4-fluoroindan-1-yl]-3-fluoro-2-hydroxybenzamide] | 86% |  | 
27 | NC(=O)[C@@H](c1cncc(F)c1)N(C(=O)c1ccccc1O)[C@@H]1CCc2c(F)cc(Cl)cc21 [Example 19-31LP, N-[(R)-Carbamoyl(5-fluoropyridin-3-yl)methyl]-N-[(R)-6-chloro-4-fluoroindan-1-yl]-2-hydroxybenzamide] |  | 71% | 
28 | Cc1cccc(C(=O)N([C@@H]2CCc3c(F)cc(Cl)cc32)[C@@H](C(N)=O)c2cccnc2)c1O [Example 19-41LP, N-[(R)-Carbamoylpyridin-3-ylmethyl]-N-[(R)-6-chloro-4-fluoroindan-1-yl]-2-hydroxy-3-methylbenzamide] | 92% |  | 
